Test results as given in ChEMBL document CHEMBL4342401, “Cathepsin B: Active site mapping with peptidic substrates and inhibitors” (Bioorg Med Chem, 2019).
Blank lines part the entries; values can stand above or below the compound they belong to. *1 amine or outer side, *2 acyl side, *3 side chain or, on linkers, in order; H or OH if unused. Where a SMILES comes first, the peptide text is derived from it. [ ]: non-standard residue; d: D form. The star is where a group is joined. X1 = CC(C)C[C@H](N[*:1])C(=O)NC(=O)[C@H]1O[C@@H]1C(=O)[*:2]; N(6-aminohexyl)Gly = O=C(CN(CCCCCCN[*:3])[*:1])[*:2]; Biotin = O=C1N[C@H]2[C@H](CS[C@H]2CCCCC(=O)*)N1

Tests used:
Cathepsin B [1] = target: T1, Cathepsin B (Homo sapiens, UniProt P07858); experiment: Inhibition of human cathepsin B assessed as ratio of Kinact to Ki using Z-Phe-Arg-NH-Mec as substrate incubated for 15 to 90 mins by fluorometric method
Cathepsin B [2] = target: T1, Cathepsin B; experiment: Inhibition of recombinant human cathepsin B expressed in baculovirus expression system using Z-Arg-Arg-AMC as substrate incubated for 20 mins by fluorescence based assay
Cathepsin B [3] = target: T1, Cathepsin B; experiment: Inhibition of human liver cathepsin B using Z-Arg-Arg-AMC as substrate preincubated for 15 mins followed by substrate addition and measured after 30 mins by fluorometric method
Cathepsin B [4] = target: T1, Cathepsin B; experiment: Inhibition of human liver cathepsin B using Z-Phe-Arg-AMC as substrate incubated for 30 mins by fluorescence based assay
Cathepsin B (Bos taurus) [5] = target: Cathepsin B (Bos taurus) (UniProt P07688); experiment: Inhibition of bovine cathepsin B assessed as ratio of Kinact to Ki using Z-Phe-Arg-pNA as substrate by UV/Vis spectrophotometric method
Cathepsin B (Bos taurus) [6] = target: Cathepsin B (Bos taurus) (UniProt P07688); experiment: Inhibition of bovine spleen cathepsin B assessed as ratio of Kinact to Ki by spectrophotometeric method
Cathepsin B [7] = target: T1, Cathepsin B; experiment: Inhibition of cathepsin B (unknown origin) assessed as reduction in 7-amino-4-methylcoumarin formation using Z-Arg-Arg-MCA as substrate preincubated for 3 mins followed by substrate addition and measured after 10 mins by fluorescence spectrometric method

- Ratio (Cathepsin B [1]): 44400 M⁻¹ s⁻¹
SMILES: CCOC(=O)[C@H]1O[C@@H]1C(=O)N[C@@H](CC(C)C)C(=O)N1CCC[C@H]1C(=O)O

- Ratio (Cathepsin B [1]): 1.6e+06 M⁻¹ s⁻¹
SMILES: CC(C)C[C@H](NC(=O)CNC(=O)CNCCCCCCNC(=O)CCCC[C@@H]1SC[C@@H]2NC(=O)N[C@@H]21)C(=O)NC(=O)[C@H]1O[C@@H]1C(=O)N[C@@H](CC(C)C)C(=O)N1CCC[C@H]1C(=O)O (H-[N(6-aminohexyl)Gly](Biotin)G[X1]LP-OH)

- IC50 (Cathepsin B [2]): < 10 nM
SMILES: Cc1cccc(C[C@H](NC(=O)c2ccc(Cl)cc2F)C(=O)N[C@H](C#N)COCc2cccc(C(=O)O)c2)c1

- IC50 (Cathepsin B [2]): < 10 nM
SMILES: CCCCC(=O)N[C@@H](Cc1cccc(C)c1)C(=O)N[C@H](C#N)COCc1cccc(C(=O)O)c1

- IC50 (Cathepsin B [3]): 300 nM
SMILES: CN1CCN(C(=O)N[C@@H](Cc2ccccc2)C(=O)N[C@H](/C=C/S(=O)(=O)c2ccccc2)c2ccc(-c3ccccc3)cc2)CC1

- Ratio (Cathepsin B [1]): 152000 M⁻¹ s⁻¹
SMILES: CCCNC(=O)[C@H]1O[C@@H]1C(=O)N[C@@H](CC(C)C)C(=O)N1CCC[C@H]1C(=O)O

- IC50 (Cathepsin B [2]): < 10 nM
SMILES: Cc1cccc(C[C@H](NC(=O)c2ccccc2)C(=O)N[C@H](C#N)COCc2cccc(C(=O)O)c2)c1

- Ratio (Cathepsin B [1]): 29400 M⁻¹ s⁻¹
SMILES: CCCNC(=O)[C@@H]1O[C@H]1C(=O)N[C@@H](CC(C)C)C(=O)N1CCC[C@H]1C(=O)O

- Ki (Cathepsin B [4]): 2 nM
SMILES: CC(C)CC(NC(=O)c1ccc(Br)cc1)C(=O)N(C)N(C)C#N (racemic)

- Ratio (Cathepsin B (Bos taurus) [5]): 2700 M⁻¹ s⁻¹
SMILES: CC(=O)N[C@@H](Cc1ccccc1)C(=O)NCC(=O)COC(=O)[C@H](CC(C)C)NC(=O)OCc1ccccc1

- Ratio (Cathepsin B [1]): 567000 M⁻¹ s⁻¹
SMILES: CCOC(=O)[C@@H]1O[C@H]1C(=O)N[C@@H](CC(C)C)C(=O)N1CCC[C@H]1C(=O)O

- Ki (Cathepsin B [4]): 0.69 nM
SMILES: CC(C)CC(NC(=O)c1ccc(-c2ccc(-c3ccccc3)cc2)cc1)C(=O)N(C)N(C)C#N (racemic)

- Ki (Cathepsin B [4]): 5 nM
SMILES: CC(C)CC(NC(=O)c1cccc(-c2ccncc2)c1)C(=O)N(C)N(C)C#N (racemic)

- Ratio (Cathepsin B (Bos taurus) [5]): 300 M⁻¹ s⁻¹
SMILES: CC(=O)N[C@@H](Cc1ccccc1)C(=O)NCC(=O)COC(=O)[C@@H](CC(C)C)NC(=O)OCc1ccccc1

- Ratio (Cathepsin B [1]): 1.52e+06 M⁻¹ s⁻¹
SMILES: COC(=O)CNC(=O)CNC(=O)[C@H](CC(C)C)NC(=O)[C@H]1O[C@@H]1C(=O)N[C@@H](CC(C)C)C(=O)N1CCC[C@H]1C(=O)O

- Ratio (Cathepsin B (Bos taurus) [6]): 12300 M⁻¹ s⁻¹
SMILES: CC(C)CCNC(=O)[C@H](Cc1ccccc1)NC(=O)[C@H]1O[C@@H]1C(=O)O

- IC50 (Cathepsin B [7]): 2.28 nM
SMILES: CCOC(=O)[C@H]1O[C@@H]1C(=O)N[C@H](C(=O)N1CCC[C@H]1C(=O)O)[C@@H](C)CC

- Ratio (Cathepsin B (Bos taurus) [6]): 105000 M⁻¹ s⁻¹
SMILES: CC(C)CCNC(=O)[C@H](Cc1cc(I)c(O)c(I)c1)NC(=O)[C@H]1O[C@@H]1C(=O)O
